Source: US20090325933A1, “Pyrimidinone Derivatives and Their Use as a Drug” (Ipsen Pharma S.A.S., priority 2006, published 2009)
Where two headings read alike, the source gives them in different places.

Biological target: T1, human CB2 receptors (Homo sapiens, UniProt P34972)
T1 construct: expressed in transfected cells; membrane preparations
Assay: Affinity for human CB2 cannabinoid receptors: inhibition of [3H]-CP55940 binding to transfected CHO-K1 cell membranes
Settings: inhibition constant value range, [3H]-CP55940 1 nM, Cheng-Prusoff
Experimental: The affinity of the compounds of the present invention for the different sub-types of cannabinoid receptors was measured according to procedures analogous to those described hereafter for the human CB2 receptor.
Study of the Affinity of the Compounds for the Human CB2 Cannabinoid Receptors:
The affinity of the compounds of the invention for the human CB2 receptors is determined by measuring the inhibition of the binding of [^3H]-CP55940 to transfected CHO-K1 cell membrane preparations.
The CHO-K1 cells expressing the human CB2 receptors in stable fashion are cultured in an RPMI 1640 medium containing 10% foetal calf serum, 2 mM of glutamine, 100 U/ml of penicillin, 0.1 mg/ml of streptomycin and 0.5 mg/ml of G418. The cells are collected with 0.5 mM of EDTA and centrifuged at 500 g for 5 minutes at 4° C. The pellet is re-suspended in phosphate buffered saline medium (PBS) and centrifuged at 500 g for 5 minutes at 4° C. The pellet is re-suspended in a Tris 50 mM buffer medium at pH 7.4 and centrifuged at 500 g for 5 minutes at 4° C. The cells are lysed by sonication and centrifuged at 39,000 g for 10 minutes at 4° C. The pellet is re-suspended in the Tris 50 mM buffer medium at pH 7.4 and centrifuged at 50,000 g for 10 minutes at 4° C. The membranes obtained in this last pellet are stored at −80° C.
Measurement of the competitive inhibition of the binding of the [^3H]-CP55940 to the CB2 receptors is carried out in duplicate using 96-well polypropylene plates. The cell membranes (10 μg of proteins/well) are incubated with the [^3H]-CP55940 (1 nM) for 60 minutes at 25° C. in a Tris-HCl 50 mM buffer medium, pH 7.4, comprising 0.1% bovine serum albumin (BSA), 5 mM of MgCl2, and 50 μg/ml of bacitracin.
The bound [^3H]-CP55940 is separated from the free [^3H]-CP55940 by filtration through GF/C glass fibre filter plates (Unifilter, Packard) pre-impregnated with 0.1% polyethylenimine (P.E.I.), using a Filtermate 196 (Packard). The filters are washed with Tris-HCl 50 mM buffer, pH 7.4 at 0-4° C. and the radioactivity present is determined using a counter (Packard Top Count).
The specific binding is obtained by subtracting the non-specific binding (determined in the presence of 0.1 μM of WIN55212-2 from the total binding). The data are analyzed by computer-assisted non-linear regression (MDL). For each test, a Cheng-Prusoff correction is made in order to convert the IC50 to the inhibition constant, Ki.
where [L] is the concentration of the radioligand used in the test and Kd is the radioligand equilibrium dissociation constant.

T1 sequence (P34972 whole entry): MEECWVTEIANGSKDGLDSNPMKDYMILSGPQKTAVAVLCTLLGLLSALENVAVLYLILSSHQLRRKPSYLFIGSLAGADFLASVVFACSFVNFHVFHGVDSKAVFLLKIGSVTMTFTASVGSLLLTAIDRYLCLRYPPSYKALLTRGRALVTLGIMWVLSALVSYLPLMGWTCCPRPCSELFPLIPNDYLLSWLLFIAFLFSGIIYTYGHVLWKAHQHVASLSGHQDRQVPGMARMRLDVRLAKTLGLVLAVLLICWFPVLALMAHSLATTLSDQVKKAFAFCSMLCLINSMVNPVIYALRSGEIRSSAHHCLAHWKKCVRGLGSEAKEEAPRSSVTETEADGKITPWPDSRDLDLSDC

| SMILES | Ki (read-out: Ki < 0.5 μM) | Ki (read-out: Ki < 5 μM) |
| --- | --- | --- |
| Cc1ccccc1-c1ccc(-c2nc3c(C)c(C)sc3c(=O)n2CCN2CCCCC2)cc1 [Example 75] | < 0.5 µM | < 5 µM |
| O=c1c2sccc2nc(-c2ccc(-c3ccccc3)cc2)n1CCc1ccncc1 [Example 15] | < 0.5 µM | < 5 µM |
| O=c1c2sccc2nc(-c2ccc(-c3ccccc3)cc2)n1CCN1CCOCC1 [Example 27] | < 0.5 µM | < 5 µM |
| O=c1c2sccc2nc(-c2ccc(-c3ccccc3)cc2)n1CCc1ccc(Cl)cc1Cl [Example 6] | < 0.5 µM | < 5 µM |
| O=c1c2occc2nc(-c2ccc(-c3ccccc3)cc2)n1CCN1CCCCC1 [Example 51] |  | < 5 µM |
| O=c1c2sccc2nc(-c2ccc(-c3ccccc3)cc2)n1CCc1cccs1 [Example 3] |  | < 5 µM |
| Cc1cccc(-c2ccc(-c3nc4c(C)c(C)sc4c(=O)n3CCN3CCCCC3)cc2)c1 [Example 70] | < 0.5 µM | < 5 µM |
| O=c1c2sccc2nc(-c2ccc(-c3ccccc3)cc2)n1CCN1CCCC1 [Example 26] | < 0.5 µM | < 5 µM |
| CC1CCCC(C)N1CCn1c(-c2ccc(-c3ccccc3)cc2)nc2ccsc2c1=O (stereo not shown) [Example 72] |  | < 5 µM |
| O=c1c2sc(-c3ccccc3)cc2nc(-c2ccc(-c3ccccc3)cc2)n1CCN1CCCCC1 [Example 58] | < 0.5 µM | < 5 µM |
| Cc1cc2nc(-c3ccc(-c4cccc(F)c4)cc3)n(CCN3CCCCC3)c(=O)c2s1 [Example 85] | < 0.5 µM | < 5 µM |
| O=c1c2ccsc2nc(-c2ccc(-c3ccccc3)cc2)n1CCN1CCOCC1 [Example 48] |  | < 5 µM |
| O=c1c2sccc2nc(-c2ccc(-c3c(F)cccc3F)cc2)n1CCN1CCCCC1 [Example 82] | < 0.5 µM | < 5 µM |
| O=c1c2sccc2nc(-c2ccc(-c3ccc(F)cc3)cc2)n1CCN1CCCCC1 [Example 73] | < 0.5 µM | < 5 µM |
| O=c1c2sc3ccccc3c2nc(-c2ccc(-c3ccccc3)cc2)n1CCN1CCOCC1 [Example 45] |  | < 5 µM |
| O=c1c2sccc2nc(-c2ccc(-c3cccs3)cc2)n1CCN1CCCCC1 [Example 39] | < 0.5 µM | < 5 µM |

| SMILES | Ki (read-out: Ki < 0.5 μM) | Ki (read-out: Ki < 5 μM) |
| --- | --- | --- |
| O=c1c2sccc2nc(-c2ccc(-c3ccccc3)cc2)n1CCc1cccnc1 [Example 14] |  | < 5 µM |
| Cc1cc2nc(-c3ccc(-c4ccccc4Cl)cc3)n(CCN3CCCCC3)c(=O)c2s1 [Example 77] | < 0.5 µM | < 5 µM |
| Cc1ccc(CCn2c(-c3ccc(-c4ccccc4)cc3)nc3ccsc3c2=O)cc1C [Example 9] |  | < 5 µM |
| O=c1c2sccc2nc(-c2ccc(-c3cc(Cl)cc(Cl)c3)cc2)n1CCN1CCCCC1 [Example 92] | < 0.5 µM | < 5 µM |
| O=C(c1ccccc1)c1ccc(-c2nc3ccsc3c(=O)n2CCN2CCOCC2)cc1 [Example 30] | < 0.5 µM | < 5 µM |
| Cc1ccc(-c2ccc(-c3nc4ccsc4c(=O)n3CCN3CCCCC3)cc2)cc1C [Example 60] | < 0.5 µM | < 5 µM |
| Cc1csc2c(=O)n(CCN3CCCCC3)c(-c3ccc(-c4ccccc4)cc3)nc12 [Example 46] | < 0.5 µM | < 5 µM |
| O=C(c1ccccc1)c1ccc(-c2nc3ccsc3c(=O)n2CCN2CCCCC2)cc1 [Example 29] | < 0.5 µM | < 5 µM |
| O=c1c2sccc2nc(-c2ccc(C3CCCCC3)cc2)n1CCN1CCCC1 [Example 35] | < 0.5 µM | < 5 µM |
| O=c1c2sccc2nc(-c2ccc3cc4ccccc4cc3c2)n1CCN1CCCCC1 [Example 50] | < 0.5 µM | < 5 µM |
| O=c1c2sccc2nc(-c2ccc(-c3cccc(Cl)c3)cc2)n1CCN1CCCCC1 [Example 79] | < 0.5 µM | < 5 µM |
| Cc1ccc(-c2ccc(-c3nc4ccsc4c(=O)n3CCN3CCCCC3)cc2)cc1 [Example 65] | < 0.5 µM | < 5 µM |
| COc1ccccc1-c1ccc(-c2nc3ccsc3c(=O)n2CCN2CCCCC2)cc1 [Example 76] | < 0.5 µM | < 5 µM |
| O=c1c2sccc2nc(-c2ccc(C3CCCCC3)cc2)n1CCC1CCOCC1 [Example 17] | < 0.5 µM | < 5 µM |
| O=c1c2sccc2nc(-c2ccc(C3CCCCC3)cc2)n1CCN1CCOCC1 [Example 37] | < 0.5 µM | < 5 µM |
